Results from patent US10519154B2, “7-substituted 1-pyridyl-naphthyridine-3-carboxylic acid amides and use thereof” (Bayer Pharma Aktiengesellschaft, priority 2016, dated 2019).

Columns and labels:
human M2 receptor [1] = target: T1, human M2 receptor (Homo sapiens, UniProt P08172); experiment: Functional M2-GIRK1/4 activation test: positive cooperativity (alpha factor); conditions: shift of acetylcholine dose-response curve (Allosteric EC50 shift); CHO-DUKX-M2-GIRK cells
T1 sequence (P08172 1-466): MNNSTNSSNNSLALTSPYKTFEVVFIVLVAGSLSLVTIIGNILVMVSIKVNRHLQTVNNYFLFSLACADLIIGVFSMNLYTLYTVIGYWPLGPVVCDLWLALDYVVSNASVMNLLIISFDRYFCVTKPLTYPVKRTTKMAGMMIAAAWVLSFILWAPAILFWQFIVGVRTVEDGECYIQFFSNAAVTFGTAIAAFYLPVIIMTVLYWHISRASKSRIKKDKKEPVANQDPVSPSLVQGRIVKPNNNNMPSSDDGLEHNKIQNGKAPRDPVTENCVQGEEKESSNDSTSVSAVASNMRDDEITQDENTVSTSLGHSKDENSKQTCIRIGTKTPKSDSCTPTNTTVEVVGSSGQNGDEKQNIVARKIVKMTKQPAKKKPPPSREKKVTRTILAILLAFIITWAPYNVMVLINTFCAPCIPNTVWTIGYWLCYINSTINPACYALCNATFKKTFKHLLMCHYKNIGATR
Source text: The binding of orthosteric agonists (endogenous ligand: acetylcholine) to the M2 receptor leads to receptor activation or a change in conformation of the receptor in the manner of a shift in equilibrium in favor of the active receptor conformation.
The agonist-induced change in conformation of the M2 receptor results in a Gαi protein activation. […] Under physiological conditions, the result is then a selective efflux of potassium from the cell along the electrochemical gradient. […] The extent of hyperpolarization can therefore be regarded as a measure of the activation of the M2 receptor.
The test cell used is a recombinant CHO-DUKX cell line which has been stably transfected with cDNA coding for the human M2 receptor and with cDNA coding for both GIRK1/4 subunits (CHO-DUKX-M2-GIRK). The transmembrane potential, or the relative changes in the transmembrane potential as a function of substance addition or M2 activation, is determined by means of a voltage-sensitive dye (FLIPR Membrane Potential Assay Kit Blue, Molecular Devices #R8034) and the measurement of cell fluorescence using a proprietary fluorescence imaging instrument.
In accordance with the desired test concentrations, the substances were pre-diluted in loading buffer (see above).
The sowing medium consisted of MEM alpha medium (supplemented with 5% FCS, 2% Glutamax, no genticin).
For the particular measurement, the medium was removed and the cells were laden with the voltage-sensitive dye for at least 6 min at room temperature (30 μl of loading buffer per 384-well). This was followed, in a first measurement, by the determination of the resting transmembrane potential for a period of 5 sec in 1 sec increments. Thereafter, 10 μl in each case of the test substances diluted in loading buffer are added, followed by a second measurement to determine the transmembrane potential for a period of 50 sec in 1 sec increments.
Finally, the cells are admixed with 10 μl of agonist solution (acetylcholine dissolved in loading buffer). In contrast to the EC50 determination of the test substances (see B-1.1), however, this is not done using one acetylcholine concentration; instead, every concentration of the test substance is combined with an acetylcholine 8-point dose-response curve. […] The M2-mediated GIRK1/4 activation or hyperpolarization is then monitored in a third measurement over a period of 60 sec in 1 sec increments. The shift in the acetylcholine dose-response curve in the presence of increasing concentrations of the test substance is analyzed and quantified by means of GraphPad PRISM (Allosteric EC50 shift). […] Positive cooperativity is the hallmark of a positive allosteric modulator. […] The greater the magnitude of the cc value, the greater the extent of cooperativity between orthosteric and allosteric.

human M2 receptor [2] = target: T1, human M2 receptor; experiment: Functional M2-GIRK1/4 activation test: allosteric potency (EC50) and efficiency; conditions: for EC50: Receptor activity EC50, CHO-DUKX-M2-GIRK cells, acetylcholine at EC20, in some cases mean of two or more determinations; for Emax: read-out: Efficiency, boosting of the acetylcholine effect at EC20 acetylcholine concentration; for Emax / Efficiency: CHO-DUKX-M2-GIRK cells; for Efficiency: boosting of the acetylcholine effect at EC20 acetylcholine concentration

Row | Cooperativity (alpha factor) (human M2 receptor [1]) | EC50 (human M2 receptor [2]) | Emax (human M2 receptor [2]) | Efficiency (human M2 receptor [2]) | Compound
1 | 24 | 111 nM | 88% |  | CCC(COC(F)(F)F)NC(=O)c1cn(-c2ncc(F)cc2F)c2nc(N3C[C@@H](O)CC3=O)ccc2c1=O (mixture of isomers) [Example 17, 1-(3,5-Difluoropyridin-2-yl)-7-[(4S)-4-hydroxy-2-oxopyrrolidin-1-yl]-4-oxo-N-[1-(trifluoromethoxy)butan-2-yl]-1,4-dihydro-1,8-naphthyridine-3-carboxamide]
2 | 61 | 70 nM | 98.5% |  | O=C(N[C@H](C1CC1)C(F)(F)F)c1cn(-c2ncc(F)cc2F)c2nc(N3C[C@@H](O)CC3=O)ccc2c1=O [Example 138, N-[(1R)-1-Cyclopropyl-2,2,2-trifluoroethyl]-1-(3,5-difluoropyridin-2-yl)-7-[(4S)-4-hydroxy-2-oxopyrrolidin-1-yl]-4-oxo-1,4-dihydro-1,8-naphthyridine-3-carboxamide]
3 | 63 | 43 nM | 96.2% |  | O=C(NC(C(F)(F)F)C(F)(F)F)c1cn(-c2ncc(F)cc2F)c2nc(N3C[C@@H](O)CC3=O)ccc2c1=O [Example 15, 1-(3,5-Difluoropyridin-2-yl)-N-(1,1,1,3,3,3-hexafluoropropan-2-yl)-7-[(4S)-4-hydroxy-2-oxopyrrolidin-1-yl]-4-oxo-1,4-dihydro-1,8-naphthyridine-3-carboxamide]
4 | 41 | 14 nM | 98% |  | CCC(NC(=O)c1cn(-c2ncc(F)cc2F)c2nc(N3C[C@@H](O)CC3=O)ccc2c1=O)C(F)(F)C(F)(F)F (single isomer, unassigned) [Example 93]
5 | 17 | 19 nM | 100% |  | CC1CC(=O)N(c2ccc3c(=O)c(C(=O)N[C@H](C4CC4)C(F)(F)F)cn(-c4ncc(F)cc4F)c3n2)C1 (single isomer, unassigned) [Example 28]
6 | 68 | 10 nM | 100% |  | CC(C)(C)[C@@H](NC(=O)c1cn(-c2ncc(F)cc2F)c2nc(N3C[C@@H](O)CC3=O)ccc2c1=O)C(F)(F)F [Example 73, 1-(3,5-Difluoropyridin-2-yl)-7-[(4S)-4-hydroxy-2-oxopyrrolidin-1-yl]-4-oxo-N-[(2R)-1,1,1-trifluoro-3,3-dimethylbutan-2-yl]-1,4-dihydro-1,8-naphthyridine-3-carboxamide]
7 | 56 | 23 nM | 100% |  | CC(C)(C)[C@H](NC(=O)c1cn(-c2ncc(F)cc2F)c2nc(N3C[C@@H](O)CC3=O)ccc2c1=O)C(F)(F)F [Example 98, 1-(3,5-Difluoropyridin-2-yl)-7-[(4S)-4-hydroxy-2-oxopyrrolidin-1-yl]-4-oxo-N-[(2S)-1,1,1-trifluoro-3,3-dimethylbutan-2-yl]-1,4-dihydro-1,8-naphthyridine-3-carboxamide]
8 | 63 | 14 nM | 98.2% |  | O=C(NC(c1ccccc1Cl)C(F)(F)F)c1cn(-c2ncc(F)cc2F)c2nc(N3C[C@@H](O)CC3=O)ccc2c1=O (mixture of isomers) [Example 4, N-[1-(2-Chlorophenyl)-2,2,2-trifluoroethyl]-1-(3,5-difluoropyridin-2-yl)-7-[(4S)-4-hydroxy-2-oxopyrrolidin-1-yl]-4-oxo-1,4-dihydro-1,8-naphthyridine-3-carboxamide]
9 | 10 | 36 nM | 79% |  | CC1CC(=O)N(c2ccc3c(=O)c(C(=O)N[C@H](C4CC4)C(F)(F)F)cn(-c4ncc(F)cc4F)c3n2)C1 (mixture of isomers) [Example 27, N-[(1R)-1-Cyclopropyl-2,2,2-trifluoroethyl]-1-(3,5-difluoropyridin-2-yl)-7-[4-methyl-2-oxopyrrolidin-1-yl]-4-oxo-1,4-dihydro-1,8-naphthyridine-3-carboxamide]
10 | 50 | 87 nM | 98.5% |  | O=C(N[C@@H](C1CC1)C(F)(F)F)c1cn(-c2ncc(F)cc2F)c2nc(N3C[C@@H](O)CC3=O)ccc2c1=O [Example 14, N-[(1S)-1-Cyclopropyl-2,2,2-trifluoroethyl]-1-(3,5-difluoropyridin-2-yl)-7-[(4S)-4-hydroxy-2-oxopyrrolidin-1-yl]-4-oxo-1,4-dihydro-1,8-naphthyridine-3-carboxamide]

The next lines start with the molecule.

Row | Compound | Cooperativity (alpha factor) (human M2 receptor [1]) | EC50 (human M2 receptor [2]) | Emax (human M2 receptor [2]) | Efficiency (human M2 receptor [2])
11 | O=C(NC(c1ccccc1Cl)C(F)(F)F)c1cn(-c2ncc(F)cc2F)c2nc(N3C[C@@H](O)[C@H](O)C3)ccc2c1=O (single isomer, unassigned) [Example 84] | 57 | 20 nM | 100% | 
12 | O=C(Nc1c(Cl)cccc1Cl)c1cn(-c2ncc(F)cc2F)c2nc(N3C[C@@H](O)CC3=O)ccc2c1=O [Example 16, N-(2,6-Dichlorophenyl)-1-(3,5-difluoropyridin-2-yl)-7-[(4S)-4-hydroxy-2-oxopyrrolidin-1-yl]-4-oxo-1,4-dihydro-1,8-naphthyridine-3-carboxamide] | 40 | 48 nM | 99% | 
13 | O=C(NC(C(F)(F)F)C(F)(F)F)c1cn(-c2ncc(F)cc2F)c2nc(N3C[C@@H](O)[C@H](O)C3)ccc2c1=O [Example 56, 1-(3,5-Difluoropyridin-2-yl)-7-[(3R,4R)-3,4-dihydroxypyrrolidin-1-yl]-N-(1,1,1,3,3,3-hexafluoropropan-2-yl)-4-oxo-1,4-dihydro-1,8-naphthyridine-3-carboxamide] | 68 | 34 nM | 100% | 
14 | O=C(NC(c1ccccc1Cl)C(F)(F)F)c1cn(-c2ncc(F)cc2F)c2nc(N3C[C@@H](O)CC3=O)ccc2c1=O (single isomer, unassigned) [Example 5] | 63 | 31 nM |  | 98.25%
15 | CCC(NC(=O)c1cn(-c2ncc(F)cc2F)c2nc(N3C[C@@H](O)[C@H](O)C3)ccc2c1=O)C(F)(F)C(F)(F)F (single isomer, unassigned) [Example 97] | 53 | 38 nM |  | 96.50%
16 | O=C(NC(C(F)(F)F)C(F)(F)F)c1cn(-c2ncc(F)cc2F)c2nc(N3C[C@@H](O)[C@@H](O)C3)ccc2c1=O [Example 55, 1-(3,5-Difluoropyridin-2-yl)-7-[(3R,4S)-3,4-dihydroxypyrrolidin-1-yl]-N-(1,1,1,3,3,3-hexafluoropropan-2-yl)-4-oxo-1,4-dihydro-1,8-naphthyridine-3-carboxamide] | 79 | 110 nM | 100% | 
17 | CC[C@H](NC(=O)c1cn(-c2ncc(F)cc2F)c2nc(N3CCNC3=O)ccc2c1=O)C(F)(F)F [Example 64, 1-(3,5-Difluoropyridin-2-yl)-4-oxo-7-(2-oxoimidazolidin-1-yl)-N-[(2S)-1,1,1-trifluorobutan-2-yl]-1,4-dihydro-1,8-naphthyridine-3-carboxamide] | 32 | 154 nM | 91.3% | 
18 | CCC(NC(=O)c1cn(-c2ncc(F)cc2F)c2nc(N3CCNC3=O)ccc2c1=O)C(F)(F)C(F)(F)F (single isomer, unassigned) [Example 165, 1-(3,5-Difluoropyridin-2-yl)-4-oxo-7-(2-oxoimidazolidin-1-yl)-N-[1,1,1,2,2-pentafluoropentan-3-yl]-1,4-dihydro-1,8-naphthyridine-3-carboxamide] | 30 | 13 nM | 84% | 
